Measured values from paper PMC12040169 (PLOS Biology, 2025).

experiment: in vitro; conditions: human, hela cells, % viability

Row | SMILES | viability at 28.5 h, 10 µM [%]
1 | Cn1c(O)c(CCNc2cc(C3CCOC3)ncn2)cnc1=O (centres unmarked) [CBK307648] | 90.7
2 | CC(C)(C)OC(=O)NCC1CCC(C(=O)O)CC1 (centres unmarked) [CBK278598] | 94.5
3 | O=C(COc1cccnc1)N1CCCC2(CCN(C(=O)Cc3c[nH]c4ccccc34)C2)C1 (centres unmarked) [CBK131608] | 105
4 | O=C(Oc1ccc(F)cc1C(=O)/C=C/c1cccs1)c1ccc([N+](=O)[O-])cc1 [CBK264925] | 91.2
5 | COc1ccccc1C(=O)Nc1ccccc1N1CCN(C)CC1 [CBK267938] | 91.8
6 | Nc1ncnc2sc3c(c12)CCC3 [CBK097952] | 89.7
7 | CCN1CCC2(C/C=C/CNC(=O)c3ccccc3OCCN(C)C2=O)CC1 [CBK292061] | 102
8 | O=C(NCc1ccccn1)c1nn[nH]c1Nc1cccc(Cl)c1 [CBK288030] | 79.4
9 | O=C(c1cn2ccccc2n1)N1CCCN(Cc2cscn2)CC1 [CBK305352] | 104
10 | NS(=O)(=O)c1ccc(N2C(=O)C(O)=C(C(=O)c3ccc(Cl)cc3)C2c2ccc([N+](=O)[O-])cc2)cc1 (centres unmarked) [CBK263758] | 97.2
11 | CC(NC(=O)c1ccccc1)C(=O)OCn1nnc2ccccc2c1=O (centres unmarked) [CBK297001] | 92
12 | Cc1ccc(OCC(O)CN(C)S(=O)(=O)O)c([N+](=O)[O-])c1 (centres unmarked) [CBK262062K] | 85.3
13 | O=C(Nc1ccc(F)cc1)c1ccc(=O)n(CC(=O)N2CCC3(CCCCC3)C2)c1 [CBK286006] | 94.9
14 | O=C(CSc1nnc(-c2ccncc2)n1-c1ccccc1)N1CCN(Cc2ccccc2)CC1 [CBK267240] | 105
15 | O=C(Nc1ccnn1Cc1cccs1)c1cc(=O)[nH]c2ccccc12 [CBK295606] | 102
16 | CC(NS(=O)(=O)Cc1ccccc1Cl)C(=O)N1CCCCC1 (centres unmarked) [CBK304928] | 93.7
17 | COc1ccc(C(=O)N[C@H]2C[C@H]3C(=O)NC[C@@H](CCC(=O)N4CCN(C)CC4)N3C2)cc1 [CBK289016] | 90.6
18 | CCc1nn(CC(=O)OC(C)C)c(=O)c2cc3sccc3n12 [CBK284076] | 75.3
19 | Cc1ccc(CNC(=O)C2(c3ccccc3)CCCC2)cc1F [CBK161529] | 85.6
20 | Nc1nc(SCC(=O)NCc2ccco2)n[nH]1 [CBK266572] | 94
21 | O=C(CSc1nnc(-c2ccncc2)n1-c1ccccc1)Nc1ccnc2ccccc12 [CBK267900] | 101
22 | CN1CCC(C(=O)N2CCN(c3ccccc3)CC2)CC1 [CBK200211] | 93.5

Row | SMILES | viability at 28.5 h, 10 µM [%]
23 | Cc1oc2c(c1C(=O)NCCn1ccnc1C)CCCC2 [CBK281898] | 97.1
24 | CC(C)Nc1nc2cc(Cl)c(Cl)cc2nc1SCCC(=O)O [CBK107860] | 96.1
25 | CCCCCOc1ccc(-c2ccc(Cl)nn2)cc1 [CBK007044] | 83.7
26 | COc1ccc(N2CCN(CCNC(=O)Nc3ccc(Cl)cc3)CC2)cc1 [CBK268725] | 94.9
27 | Cc1cc(NC(=O)c2nn3c(C(F)(F)F)cc(-c4ccccc4)nc3c2Cl)nn1CC(=O)N1CCOCC1 [CBK268209] | 105
28 | O=C(O)c1cc(S(=O)(=O)N2CCCCC2)c(Cl)cc1N1CCCCC1 [CBK263408] | 93.5
29 | Cc1ccc(S(=O)(=O)N2CCC(OC(N)=O)CC2)cc1 [CBK003369] | 106
30 | CS(=O)(=O)c1ccc(-c2c[nH]c([C@@H]3COCCN3Cc3c[nH]c4ccccc34)n2)cc1 [CBK289321] | 92
31 | CCOC(=O)c1cnc(SCC(=O)N2CCN(c3ccccc3)CC2)nc1N [CBK269159] | 90.5
32 | CCN1C(=O)CC2(C1=O)C(=O)N(CCCOc1ccccc1OC)c1ccccc12 (centres unmarked) [CBK075498] | 109
33 | Cc1ccc(Nc2nc3c(c(=O)[nH]2)CCCC3)cc1 [CBK287895] | 100
34 | CN(C)C(=O)c1ccc(Cn2ccnc(N3CCC(Sc4ccccc4)CC3)c2=O)cc1 [CBK153651] | 107
35 | COc1cncc(-c2cncc(NCCCN3CCOCC3)n2)c1 [CBK037902] | 84
36 | COc1ccc(-c2nnc3ccc(SCC(=O)N4CCCC4)nn23)cc1OC [CBK287527] | 85.9
37 | Cc1cc(C2CCCCCN2C(=O)c2nn(C)cc2Cl)on1 (centres unmarked) [CBK284843] | 105
38 | Cc1ccc(-c2nc3ncccc3o2)cc1NC(=O)c1ccc(F)cc1 [CBK263043] | 103
39 | N#Cc1ccccc1CSCCNC(=O)c1ccc(NC(=O)c2ccco2)s1 [CBK296749] | 80.8
40 | COc1ccc(-c2sc(C(=O)O)c(C)c2C#N)cc1 [CBK019922] | 101
41 | Cc1ccc2c(c1)CCCN2C(=O)c1csc2c(C(F)(F)F)cc(N3CCOCC3)nc12 [CBK028367] | 116
42 | N#C/C(=C\c1ccc(-c2cc(Cl)ccc2Cl)o1)C(=O)Nc1cccc2cccnc12 [CBK263082] | 110
43 | CC(OC(=O)c1ccc2c(c1)C(=O)N(c1ccc(Cl)cc1)C2=O)C(=O)c1ccccc1 (centres unmarked) [CBK156661] | 111
44 | O=C(c1cccnc1)N1CCN(Cc2ccc([N+](=O)[O-])cc2)CC1 [CBK263026] | 93.4

Row | SMILES | viability at 28.5 h, 10 µM [%]
45 | Cc1cc(=O)[nH]c(-n2nc(C)cc2NC(=O)c2ccccc2C)n1 [CBK287654] | 92.5
46 | O=C(NC(Nc1cccc(C(F)(F)F)c1)C(=O)c1ccccc1)c1ccc(Cl)cc1 (centres unmarked) [CBK263585] | 89.5
47 | Cc1csc(C(=O)N2CCCC(c3cc(O)cc(C)n3)C2)c1 (centres unmarked) [CBK283423] | 89.5
48 | CCOC(=O)CN1CCC(Oc2cncc(OCc3ccc(Cl)c(Cl)c3)n2)C1 (centres unmarked) [CBK084432] | 91.7
49 | Cc1cccc(CN(CCCN)C(=O)Nc2ccc(C(C)(C)C)cc2)n1 [CBK033365C] | 98.3
50 | O=C(O)CCn1c(C2CCCCC2)nc2ccccc21 [CBK111480] | 86.2
51 | CCOC(=O)CCCNC(=O)N1CCCC(CO)C1 (centres unmarked) [CBK156344] | 102
52 | CC(C)(C)c1ccc(S(=O)(=O)N2CCCC[C@H]2COC(=O)CCC(=O)O)cc1 [CBK200063] | 117
53 | CC(CC(=O)NCC1(C)COC1)n1cnc2ccccc21 (centres unmarked) [CBK281755] | 78.1
54 | COc1ccc(Oc2nccnc2N2CCN(CCc3ccccn3)CC2)cc1OC [CBK083067T] | 93.2
55 | O=C([C@H]1O[C@H](CCN2CCN(c3ccccn3)CC2)CC[C@@H]1O)N1CCCC1 [CBK288730] | 83.3
56 | CSCC[C@@H]1CN2CCC[C@H]2CN1Cc1cnc(C)n1C [CBK285423] | 109
57 | C(=C\c1nccnc1OCCOc1ccccc1)/c1ccccc1 [CBK106885] | 91.6
58 | C[C@H](NC(=O)N1CCC(c2nc(-c3ccccc3)c3ccccn23)CC1)c1ccccc1 [CBK047086] | 92.7
59 | Cc1ccc(NC(=O)C2CC(=O)Nc3nc(SCc4ccccc4C)[nH]c(=O)c32)c(C)c1 (centres unmarked) [CBK294438] | 91
60 | COc1ccc(F)cc1-c1ccc(CC2(C(=O)NC3CCCCC3)CCOCC2)cc1 [CBK285538] | 86.6
61 | COC(=O)Cn1c(=N)n(CCN2CCOCC2)c2ccccc21 [CBK262447B] | 109
62 | CC1CCN(Cc2ccc(-c3ccc(CC(=O)NCCc4ccc(O)cc4)cn3)cc2)CC1 [CBK158384] | 91.9
63 | Cc1nc2c(OCCOc3ccc(F)cc3)cccn2c1N(C)C(=O)CCC1CCCC1 [CBK147198] | 103
64 | CCc1noc(C)c1C(=O)N1CC[C@@H](CNC(=O)N2CCCC2)[C@H](O)C1 [CBK307222] | 88.3
65 | CCNC(=O)c1cnc(-c2ccc(Cl)cc2)c(-c2cccnc2)c1 [CBK037584] | 103
66 | O=C(CSc1nnc(-c2ccccc2)[nH]1)c1cccc([N+](=O)[O-])c1 [CBK263287] | 91

Row | SMILES | viability at 28.5 h, 10 µM [%]
67 | CCn1cc(-c2cncn2CCCn2ccnc2C(C)C)cn1 [CBK282244] | 89.4
68 | Cc1ccc(OCC(=O)Nc2sc3c(c2C#N)CCCC3)cc1 [CBK263548] | 109
69 | COc1ccc(N(CC(=O)Nc2cccnc2)S(=O)(=O)c2ccccc2)cc1 [CBK262236] | 91.6
70 | O=C1CN(C(=O)Nc2ccc3c(c2)OCCO3)CCN1 [CBK155860] | 92.9
71 | Cc1ccc(S(=O)(=O)N(CC(=O)Nc2ccccc2C)Cc2ccc(Cl)c(Cl)c2)cc1 [CBK264735] | 93.3
72 | O=C(Nc1ccccc1)Nc1ccccc1C(=O)NCc1ccccc1 [CBK265338] | 90.2
73 | CC(C)c1cc(C(=O)NC2CCOc3ccccc32)no1 (centres unmarked) [CBK283065] | 93.9
74 | CCc1cc2c(=O)c(-c3nc(C)cs3)c(C)oc2cc1OCc1ccc([N+](=O)[O-])cc1 [CBK268305] | 101
75 | CC(C)CCNC(=O)c1cccc(-n2c(=S)[nH]c3cc(Cl)ccc3c2=O)c1 [CBK294444] | 107
76 | COc1ccc(C(=O)COC(=O)c2cccc(N3C(=O)C4C5C=C(C)C(C5)C4C3=O)c2)cc1 (centres unmarked) [CBK264808] | 94.1
77 | C=CCOCc1cc(O)n2nc(SC)c(C(N)=O)c2n1 [CBK008592] | 94.6
78 | CC(C)[C@@H](CO)n1c(=O)[nH]c2ncc(-c3ccc(N4CCOCC4)cc3)nc21 [CBK064770] | 110
79 | COc1cc(/C=C2\C(=O)N(c3ccccc3Cl)N=C2c2ccccc2)ccc1O [CBK265698] | 82.8
80 | Cc1ccnc(SCc2c(Cl)cccc2[N+](=O)[O-])n1 [CBK269632] | 86
81 | CCC1(C)CC(C(CCN)c2ccc(C)cc2)CCO1 (centres unmarked) [CBK027350] | 98.8
82 | COc1ccc(-c2cc3nnc(C)nc3s2)cc1 [CBK025638] | 107
83 | O=C(Cc1cn2ccsc2n1)Nc1ccc(N2CCCCC2)cc1 [CBK306185] | 79
84 | COc1cccc2cc(C(=O)C3=C(O)C(=O)N(CCCN4CCOCC4)C3c3ccc(C)cc3)oc12 (centres unmarked) [CBK266420] | 106
85 | CC(C)(CO)Cn1c(=O)[nH]c2ncc(-c3ccc(F)c(Cl)c3)nc21 [CBK064737] | 102
86 | O=C(c1ccc(COc2ccccc2Cl)o1)N1CCN(Cc2ccc3c(c2)OCO3)CC1 [CBK265750C] | 87.3
